Measurements from patent US12617831B2 (UNIVERSITE D'ANGERS, priority 2019, dated 2026).
Ends that are not written are not given here.

How the values were obtained:
[1] = test system: MC3T3-E1 subclone 4 cells; type: cell-based, murine; details: for Interpretation of combination index on collagen maturity at EC50: 69 pM; for Interpretation of combination index on collagen maturity at EC50 / Interpretation of combination index on collagen maturity at […] EC50: t-test vs additivity 1.0±0.15; for Interpretation of combination index on collagen maturity at […] EC50: 100 pM; for Emax for dose-effect curves on collagen maturity: MC3T3-E1, day 14; for effect on collagen maturity index: MC3T3-E1, vs cultures without peptide (FIG. 20); for Cl at […] EC50 (combination index on collagen maturity): at […] mean EC50 of GIP and GLP-2, 100 pM; for Cl at […] EC50 (combination index on collagen maturity) / Cl at EC50 (combination index on collagen maturity): Chou & Talalay, mean ± SD; for Cl at EC50 (combination index on collagen maturity): at mean EC50 of GIP and GLP-2, 69 pM
Experimental: Briefly, MC3T3-E1 subclone 4 cells have been grown and propagated in α-MEM supplemented with 5% fetal bovine serum (FBS), 5% bovine calf serum (BCS), 100 U/mL penicillin, and 100 μg/mL streptomycin in a humidified atmosphere enriched with 5% CO2 at 37° C. […] This day was considered as day 1. The differentiation medium was replenished every two days. […] Cultures were rinsed at least six times with milliQ water, fixed in absolute ethanol, scrapped off the culture dish and transferred onto BaF2 windows where they were air-dried. Integrity of the collagen extracellular matrix was verified by comparing the obtained Fourier transform infrared spectrum with those of commercial collagen. Spectral analysis was performed using a Bruker Vertex 70 spectrometer (Bruker optics, Ettlingen, Germany) interfaced with a Bruker Hyperion 3000 infrared microscope equipped with a standard single element Mercury Cadmium Telluride (MCT) detector. Calibration of the infrared spectrometer is done once a week with a polystyrene film standard (Bruker optics). Infrared spectra were recorded at a resolution of 4 cm^-1, with an average of 32 scans in transmission mode. Background spectral images were collected under identical conditions from the same BaF2 windows at the beginning and end of each experiment to ensure instrument stability. At least 5 spectra were acquired for each condition and analyzed with a lab-made routine script (version 2.0) in Matlab R2016b (The Mathworks, Natick, MA). […] For GIP and GLP-2 dataset, the inventors used the collagen maturity data previously acquired and analyzed. First of all, collagen maturity obtained in control cultures, i.e. in the absence of double GIP/GLP-2 analogues, were averaged and subtracted to the all dataset. […] For each concentration of peptide, the mean, SD and number of events were computed. […] The GraphPad Prism analysis consisted in: […] Statistical Analysis […] Data are represented as mean±SD.

[2] = test system: Murine Raw 264.7 cells; type: cell-based; details: for Emax, maximum inhibitory effect on osteoclastogenesis: Raw 264.7, * data obtained in previous experiments; for Cl at EC50 of GIP and GLP-2 (combination index for osteoclastogenesis): at 36.8 pM, Chou & Talalay; for Interpretation of combination index for osteoclastogenesis: at EC50 of GIP and GLP-2, 36.8 pM; for IC50 computed from curve fitting of osteoclastogenesis vs. peptide concentration: Raw 264.7, RANKL 10 ng/ml, 110 h, * values determined from previous experiments
Experimental: Murine Raw 264.7 cells were grown and expanded in propagation medium containing Dulbecco's modified Eagle medium (DMEM-Gibco) supplemented with 10% fetal bovine serum (FBS-Lonza), 100 U/mL penicillin and 100 μg/mL streptomycin (Gibco) in a humidified atmosphere enriched with 5% CO2 at 37° C. The first passage after thawing Raw 264.7 cells was considered as passage 1. Cells were used up to passage 8. […] Cultures were rinsed three times in distilled water and the residual activity was inhibited by 4% NaF (Sigma-Aldrich) for 30 min. Cells were then rinsed in distilled water and allowed to dry. TRAcP positive cells, with more than three nuclei, were identified as osteoclasts. The number of newly generated osteoclasts was assessed using light microscopic examination by a histologist that was blinded to the treatment intervention. […] For each concentration of peptide, the mean, SD and number of events were computed.

[3] = test system: Murine MC3T3-E1 cells; test: Collagen maturity assay in MC3T3-E1 cultures (Example 2); type: cell-based; details: MC3T3-E1 cultures (FIGS. 5-7)
Experimental: At confluence, the propagation medium was replaced by the differentiation medium containing αMEM supplemented with 5% FBS, 5% bovine calf serum, 100 U/mL penicillin, 100 μg/mL streptomycin, 50 μg/ml ascorbic acid and various concentrations of analogues. This day was considered as day 1. The differentiation medium was replenished every two days. […] Cultures were rinsed at least six times with milliQ water, fixed in absolute ethanol, scrapped off the culture dish and transferred onto BaF2 windows where they were air-dried. Integrity of the collagen extracellular matrix was verified by comparing the obtained Fourier transform infrared spectrum with those of commercial collagen. Spectral analysis was performed using a Bruker Vertex 70 spectrometer (Bruker optics, Ettlingen, Germany) interfaced with a Bruker Hyperion 3000 infrared microscope equipped with a standard single element Mercury Cadmium Telluride (MCT) detector. Infrared spectra were recorded at a resolution of 4 cm^−1, with an average of 32 scans in transmission mode. Background spectral images were collected under identical conditions from the same BaF2 windows at the beginning and end of each experiment to ensure instrument stability. At least 20 spectra were acquired for each condition and analyzed with a lab-made routine script in Matlab R2016b (The Mathworks, Natick, MA).

Compound	EC50 [1] [nM]	Interpretation of combination index on collagen maturity at EC50 [1]	Interpretation of combination index on collagen maturity at […] EC50 [1]	Emax for dose-effect curves on collagen maturity [1] [%]	effect on collagen maturity index [1]	Cl at […] EC50 (combination index on collagen maturity) [1]	Cl at EC50 (combination index on collagen maturity) [1]	Emax, maximum inhibitory effect on osteoclastogenesis [2] [%]	Cl at EC50 of GIP and GLP-2 (combination index for osteoclastogenesis) [2]	Interpretation of combination index for osteoclastogenesis [2]	EC50 [2] [nM]	IC50 computed from curve fitting of osteoclastogenesis vs. peptide concentration [2] [nM]	profile of collagen maturity versus concentration [3]
CC[C@H](C)[C@H](NC(=O)[C@H](Cc1ccccc1)NC(=O)[C@H](CC(=O)O)NC(=O)[C@H](CCCNC(=N)N)NC(=O)[C@H](C)NC(=O)[C@H](C)NC(=O)[C@H](CC(C)C)NC(=O)[C@H](CC(N)=O)NC(=O)[C@H](CC(=O)O)NC(=O)[C@H](CC(C)C)NC(=O)[C@@H](NC(=O)[C@@H](NC(=O)[C@H](CO)NC(=O)[C@H](Cc1ccc(O)cc1)NC(=O)[C@H](CC(=O)O)NC(=O)[C@H](CO)NC(=O)[C@@H](NC(=O)[C@H](Cc1ccccc1)NC(=O)[C@@H](NC(=O)CNC(=O)[C@H](CC(=O)O)NC(=O)[C@H](C)NC(=O)[C@@H](N)Cc1c[nH]cn1)[C@@H](C)O)[C@@H](C)CC)[C@@H](C)O)[C@@H](C)CC)C(=O)N[C@@H](CC(N)=O)C(=O)N[C@@H](Cc1c[nH]c2ccccc12)C(=O)N[C@@H](CC(C)C)C(=O)N[C@H](C(=O)N[C@@H](CCC(N)=O)C(=O)N[C@H](C(=O)N[C@@H](CCCCN)C(=O)N[C@H](C(=O)N[C@H](C(=O)N[C@@H](CC(=O)O)C(N)=O)[C@@H](C)O)[C@@H](C)CC)[C@@H](C)O)[C@@H](C)CC [Co-3]	0.0194	Additive (CI 0.85-1.15: additive)	Additive (CI 0.85-1.15: additive)	121.8	very modest	1.79 ± 2.20	1.29 ± 1.65	37.88	48.00	Very strong antagonism (CI>10: very strong antagonism)			
CC[C@H](C)[C@H](NC(=O)[C@H](Cc1ccccc1)NC(=O)[C@H](CC(=O)O)NC(=O)[C@H](CCCNC(=N)N)NC(=O)[C@H](C)NC(=O)[C@H](C)NC(=O)[C@H](CC(C)C)NC(=O)[C@H](CC(N)=O)NC(=O)[C@H](CC(=O)O)NC(=O)[C@H](CC(C)C)NC(=O)[C@@H](NC(=O)[C@@H](NC(=O)[C@H](CO)NC(=O)[C@H](Cc1ccc(O)cc1)NC(=O)[C@H](CC(=O)O)NC(=O)[C@H](CO)NC(=O)[C@@H](NC(=O)[C@H](Cc1ccccc1)NC(=O)[C@@H](NC(=O)CNC(=O)[C@H](CC(=O)O)NC(=O)[C@H](C)NC(=O)[C@@H](N)Cc1c[nH]cn1)[C@@H](C)O)[C@@H](C)CC)[C@@H](C)O)[C@@H](C)CC)C(=O)N[C@@H](CC(N)=O)C(=O)N[C@@H](Cc1c[nH]c2ccccc12)C(=O)N[C@@H](CC(C)C)C(=O)N[C@H](C(=O)N[C@@H](CCC(N)=O)C(=O)N[C@H](C(=O)N[C@@H](CCCCN)C(=O)NCC(=O)N[C@@H](CCCCN)C(=O)N[C@@H](CCCCN)C(N)=O)[C@@H](C)O)[C@@H](C)CC [Co-19]	0.0229	Additive (CI 0.85-1.15: additive)	Additive (CI 0.85-1.15: additive)	118.1	very modest	389.0 ± 864	277.7 ± 617.4	62.36	1.94	Antagonism (CI 1.45-3.3: antagonism)	0.0324	0.0324	
CC[C@H](C)[C@H](NC(=O)[C@H](CO)NC(=O)[C@H](CCSC)NC(=O)[C@H](CC(=O)O)NC(=O)[C@H](CO)NC(=O)CNC(=O)[C@H](Cc1ccccc1)NC(=O)[C@H](CO)NC(=O)CNC(=O)[C@H](CCC(=O)O)NC(=O)CNC(=O)[C@@H](N)Cc1c[nH]cn1)C(=O)N[C@@H](C)C(=O)N[C@@H](CC(C)C)C(=O)N[C@@H](CC(=O)O)C(=O)N[C@@H](CCCCN)C(=O)N[C@@H](CC(C)C)C(=O)N[C@@H](C)C(=O)N[C@@H](C)C(=O)N[C@@H](CCCNC(=N)N)C(=O)N[C@@H](CC(=O)O)C(=O)N[C@@H](Cc1ccccc1)C(=O)N[C@H](C(=O)N[C@@H](CC(N)=O)C(=O)N[C@@H](Cc1c[nH]c2ccccc12)C(=O)N[C@@H](CC(C)C)C(=O)N[C@@H](CC(C)C)C(=O)N[C@@H](CCC(N)=O)C(=O)N[C@H](C(=O)N[C@@H](CCCCN)C(=O)N[C@H](C(=O)N[C@H](C(=O)N[C@@H](CC(=O)O)C(=O)NCC(=O)N[C@@H](C)C(=O)N[C@@H](C)C(=O)N[C@@H](CC(=O)O)C(=O)N[C@@H](CC(=O)O)C(=O)N[C@@H](CC(=O)O)C(=O)N[C@@H](CC(=O)O)C(=O)N[C@@H](CC(=O)O)C(=O)N[C@@H](CC(=O)O)C(N)=O)[C@@H](C)O)[C@@H](C)CC)[C@@H](C)O)C(C)C [GL-0001-Tag]													biphasic profile
CC[C@H](C)[C@H](NC(=O)[C@H](CO)NC(=O)[C@H](CCSC)NC(=O)[C@H](CC(=O)O)NC(=O)[C@H](CO)NC(=O)[C@@H](NC(=O)[C@H](Cc1ccccc1)NC(=O)[C@H](CO)NC(=O)CNC(=O)[C@H](CCC(=O)O)NC(=O)CNC(=O)[C@@H](N)Cc1c[nH]cn1)C(C)C)C(=O)N[C@H](C(=O)N[C@@H](CC(C)C)C(=O)N[C@@H](CC(=O)O)C(=O)N[C@@H](CCCCN)C(=O)N[C@@H](CC(C)C)C(=O)N[C@@H](C)C(=O)N[C@@H](C)C(=O)N[C@@H](CCCNC(=N)N)C(=O)N[C@@H](CC(=O)O)C(=O)N[C@@H](Cc1ccccc1)C(=O)N[C@H](C(=O)N[C@@H](CC(N)=O)C(=O)N[C@@H](Cc1c[nH]c2ccccc12)C(=O)N[C@@H](CC(C)C)C(=O)N[C@@H](CC(C)C)C(=O)N[C@@H](CCC(N)=O)C(=O)N[C@H](C(=O)N[C@@H](CCCCN)C(N)=O)[C@@H](C)O)C(C)C)C(C)C [GL-0002]													biphasic profile
CSCC[C@H](NC(=O)[C@H](CC(=O)O)NC(=O)[C@H](CO)NC(=O)[C@@H](NC(=O)[C@H](Cc1ccccc1)NC(=O)[C@H](CO)NC(=O)CNC(=O)[C@H](CCC(=O)O)NC(=O)CNC(=O)[C@@H](N)Cc1c[nH]cn1)C(C)C)C(=O)N[C@@H](CO)C(=O)N[C@H](C(=O)N[C@H](C(=O)N[C@@H](CC(C)C)C(=O)N[C@@H](CC(=O)O)C(=O)N[C@@H](CCCCN)C(=O)N[C@@H](CC(C)C)C(=O)N[C@@H](C)C(=O)N[C@@H](C)C(=O)N[C@@H](CCCNC(=N)N)C(=O)N[C@@H](CC(=O)O)C(=O)N[C@@H](Cc1ccccc1)C(=O)N[C@H](C(=O)N[C@@H](CC(N)=O)C(=O)N[C@@H](Cc1c[nH]c2ccccc12)C(=O)N[C@@H](CC(C)C)C(=O)N[C@@H](CC(C)C)C(=O)N[C@@H](CCC(N)=O)C(=O)N[C@H](C(=O)N[C@@H](CCCCN)C(N)=O)[C@@H](C)O)C(C)C)C(C)C)C(C)C [GL-0004]													biphasic profile
HAEGTFISDYSIAMDKLAARDFINWLIQTKITD-NH2 (C-terminus assumed) [Co-7]	0.0086 ± 0.0069	Additive (CI 0.85-1.15: additive)	Antagonism (CI 1.45-3.3: antagonism)	115.6	very modest	2.30 ± 1.01	1.53 ± 1.10	58.05	271.28	Very strong antagonism (CI>10: very strong antagonism)	1.48	1.48	
